Results taken from the supplement of paper PMC12463676, “Small-molecule dissolution of stress granules by redox modulation benefits ALS models” (Nature Chemical Biology, 2025).

Tests used:
lipoamide = compound: NC(=O)CCCCC1CCSS1 [lipoamide]; assay: thermal stability z-score vs DMSO; higher = more thermally stabilized by treatment; conditions: HeLa, lipoamide concentration 100 µM
Procedure: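 Cellular thermal proteome profiling in HeLa cells. Cells were treated with 100 µM lipoamide for 1 h, with or without 1 mM arsenate for a further 1 h, then heated to ten temperatures (37-66.3 °C), and soluble protein was quantified by TMT mass spectrometry relative to 0.1% DMSO controls. The thermal stability score (sum of log2 fold changes minus the abundance score) was transformed to a z-score; mean of n = 3 experiments.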

potassium arsenate = compound: O=[As]([O-])(O)O.[K+] [potassium arsenate]; assay: as above; conditions: HeLa; arsenate concentration 1 mM
Procedure: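 Cellular thermal proteome profiling in HeLa cells treated with 1 mM arsenate for 1 h (DMSO pretreatment), heated to ten temperatures (37-66.3 °C). Soluble protein was quantified by TMT mass spectrometry relative to DMSO controls; the thermal stability score was transformed to a z-score; mean of n = 3 experiments.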

[1] = arsenate co-treatment: 1 mM arsenate 1 h
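Also: each temperature applied for 3 min, abundance score taken as mean log2 fold change at the two lowest temperatures, z-score obtained by mean subtraction and division by SD.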

UniProt O14949, sequence (O14949 whole entry): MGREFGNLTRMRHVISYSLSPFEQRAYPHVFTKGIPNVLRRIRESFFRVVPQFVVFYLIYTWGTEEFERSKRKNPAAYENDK
UniProt Q9BW60, sequence (Q9BW60 whole entry): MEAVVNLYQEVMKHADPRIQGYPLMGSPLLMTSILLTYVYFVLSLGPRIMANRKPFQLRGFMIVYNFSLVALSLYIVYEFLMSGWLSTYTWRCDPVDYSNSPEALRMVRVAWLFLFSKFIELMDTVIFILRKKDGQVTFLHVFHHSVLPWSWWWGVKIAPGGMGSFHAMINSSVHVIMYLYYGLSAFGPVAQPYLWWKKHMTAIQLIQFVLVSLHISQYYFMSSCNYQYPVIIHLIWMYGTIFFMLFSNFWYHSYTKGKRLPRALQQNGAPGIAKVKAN
UniProt O15392, sequence (O15392 whole entry): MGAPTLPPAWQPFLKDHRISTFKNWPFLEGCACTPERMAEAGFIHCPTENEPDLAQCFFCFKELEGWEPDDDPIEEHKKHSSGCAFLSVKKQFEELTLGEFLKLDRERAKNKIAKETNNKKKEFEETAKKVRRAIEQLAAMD
UniProt Q9NVI1, sequence (Q9NVI1 whole entry): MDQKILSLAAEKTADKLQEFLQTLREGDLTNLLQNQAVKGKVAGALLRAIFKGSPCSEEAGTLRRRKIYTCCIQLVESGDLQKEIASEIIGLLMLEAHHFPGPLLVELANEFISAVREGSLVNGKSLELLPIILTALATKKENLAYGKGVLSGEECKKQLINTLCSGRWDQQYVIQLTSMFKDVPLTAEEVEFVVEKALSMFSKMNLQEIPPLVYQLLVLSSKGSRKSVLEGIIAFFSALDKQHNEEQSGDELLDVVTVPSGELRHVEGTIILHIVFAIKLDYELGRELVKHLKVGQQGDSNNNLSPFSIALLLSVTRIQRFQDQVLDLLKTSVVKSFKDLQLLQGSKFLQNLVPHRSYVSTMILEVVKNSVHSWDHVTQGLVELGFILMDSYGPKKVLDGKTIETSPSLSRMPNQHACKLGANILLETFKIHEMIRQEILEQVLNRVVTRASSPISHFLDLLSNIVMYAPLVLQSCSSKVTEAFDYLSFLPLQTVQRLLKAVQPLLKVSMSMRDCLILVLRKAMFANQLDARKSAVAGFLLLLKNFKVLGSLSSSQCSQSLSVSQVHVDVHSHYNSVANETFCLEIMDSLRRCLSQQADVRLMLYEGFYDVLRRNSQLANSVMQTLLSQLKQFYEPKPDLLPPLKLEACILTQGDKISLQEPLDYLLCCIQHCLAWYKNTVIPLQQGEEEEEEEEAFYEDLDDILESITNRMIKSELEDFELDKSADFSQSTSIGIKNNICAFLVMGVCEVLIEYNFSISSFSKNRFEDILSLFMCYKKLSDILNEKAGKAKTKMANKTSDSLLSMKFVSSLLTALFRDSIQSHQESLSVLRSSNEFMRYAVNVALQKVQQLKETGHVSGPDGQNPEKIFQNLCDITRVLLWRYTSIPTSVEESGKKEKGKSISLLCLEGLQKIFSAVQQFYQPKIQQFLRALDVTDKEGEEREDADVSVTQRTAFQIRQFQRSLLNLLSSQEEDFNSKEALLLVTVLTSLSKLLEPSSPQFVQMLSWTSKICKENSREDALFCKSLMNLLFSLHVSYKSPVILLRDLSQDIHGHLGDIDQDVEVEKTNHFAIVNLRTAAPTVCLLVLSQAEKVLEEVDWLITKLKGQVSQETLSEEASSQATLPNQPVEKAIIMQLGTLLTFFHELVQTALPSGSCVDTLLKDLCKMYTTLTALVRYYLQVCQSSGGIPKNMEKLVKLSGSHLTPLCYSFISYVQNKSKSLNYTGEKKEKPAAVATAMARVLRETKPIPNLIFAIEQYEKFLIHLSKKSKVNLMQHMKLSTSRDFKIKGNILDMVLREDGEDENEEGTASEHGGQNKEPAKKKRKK
UniProt P42025, sequence (P42025 whole entry): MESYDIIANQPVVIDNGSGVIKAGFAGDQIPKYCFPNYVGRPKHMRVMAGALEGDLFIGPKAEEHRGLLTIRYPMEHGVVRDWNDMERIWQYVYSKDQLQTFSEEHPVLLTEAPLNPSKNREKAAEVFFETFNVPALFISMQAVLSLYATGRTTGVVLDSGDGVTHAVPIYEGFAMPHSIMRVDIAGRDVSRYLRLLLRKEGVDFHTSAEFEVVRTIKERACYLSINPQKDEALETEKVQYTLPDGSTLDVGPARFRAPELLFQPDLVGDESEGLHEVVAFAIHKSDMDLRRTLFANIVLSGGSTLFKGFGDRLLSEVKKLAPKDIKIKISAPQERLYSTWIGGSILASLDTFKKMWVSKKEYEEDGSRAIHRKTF
UniProt Q14558, sequence (Q14558 whole entry): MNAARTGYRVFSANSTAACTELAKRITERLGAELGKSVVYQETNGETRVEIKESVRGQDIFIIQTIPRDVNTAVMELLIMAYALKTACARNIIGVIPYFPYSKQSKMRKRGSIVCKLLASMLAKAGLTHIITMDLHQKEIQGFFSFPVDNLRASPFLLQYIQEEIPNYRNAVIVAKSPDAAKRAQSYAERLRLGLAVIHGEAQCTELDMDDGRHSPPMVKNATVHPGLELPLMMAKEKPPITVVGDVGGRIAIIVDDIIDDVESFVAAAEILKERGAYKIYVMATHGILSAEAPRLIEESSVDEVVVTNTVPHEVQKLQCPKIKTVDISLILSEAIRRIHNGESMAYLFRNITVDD
UniProt P45985, sequence (P45985 whole entry): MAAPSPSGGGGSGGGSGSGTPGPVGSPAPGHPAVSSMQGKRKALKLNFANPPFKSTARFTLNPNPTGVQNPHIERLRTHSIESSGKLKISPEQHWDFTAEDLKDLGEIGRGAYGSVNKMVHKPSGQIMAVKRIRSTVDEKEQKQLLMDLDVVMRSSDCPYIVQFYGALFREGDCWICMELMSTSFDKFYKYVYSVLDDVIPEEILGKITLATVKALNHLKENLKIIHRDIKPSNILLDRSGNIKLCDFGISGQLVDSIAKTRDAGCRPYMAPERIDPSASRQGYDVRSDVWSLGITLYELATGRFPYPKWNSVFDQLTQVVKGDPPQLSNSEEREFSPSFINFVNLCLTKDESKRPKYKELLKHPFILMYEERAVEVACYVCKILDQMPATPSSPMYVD
UniProt O75600, sequence (O75600 whole entry): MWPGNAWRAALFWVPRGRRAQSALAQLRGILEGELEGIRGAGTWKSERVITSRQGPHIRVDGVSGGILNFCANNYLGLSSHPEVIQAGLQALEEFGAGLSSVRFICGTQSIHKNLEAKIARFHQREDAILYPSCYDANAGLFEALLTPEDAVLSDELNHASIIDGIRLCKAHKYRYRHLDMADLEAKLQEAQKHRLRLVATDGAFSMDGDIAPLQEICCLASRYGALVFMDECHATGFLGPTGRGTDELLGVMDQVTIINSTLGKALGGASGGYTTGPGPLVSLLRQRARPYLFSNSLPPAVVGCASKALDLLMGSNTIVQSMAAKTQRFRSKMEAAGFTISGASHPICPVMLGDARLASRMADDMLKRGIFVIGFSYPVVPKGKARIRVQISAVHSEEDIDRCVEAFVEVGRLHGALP
UniProt Q9Y5P6, sequence (Q9Y5P6 whole entry): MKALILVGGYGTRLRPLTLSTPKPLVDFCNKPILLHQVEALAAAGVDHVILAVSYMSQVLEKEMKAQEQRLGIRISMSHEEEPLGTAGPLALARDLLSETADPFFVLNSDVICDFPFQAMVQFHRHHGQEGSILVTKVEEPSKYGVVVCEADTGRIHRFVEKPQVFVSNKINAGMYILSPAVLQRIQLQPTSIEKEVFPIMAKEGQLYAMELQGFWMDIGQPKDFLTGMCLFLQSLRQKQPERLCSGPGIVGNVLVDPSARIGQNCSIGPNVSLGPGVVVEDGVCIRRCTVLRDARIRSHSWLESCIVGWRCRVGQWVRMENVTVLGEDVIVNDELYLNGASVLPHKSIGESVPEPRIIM
UniProt P30837, sequence (P30837 whole entry): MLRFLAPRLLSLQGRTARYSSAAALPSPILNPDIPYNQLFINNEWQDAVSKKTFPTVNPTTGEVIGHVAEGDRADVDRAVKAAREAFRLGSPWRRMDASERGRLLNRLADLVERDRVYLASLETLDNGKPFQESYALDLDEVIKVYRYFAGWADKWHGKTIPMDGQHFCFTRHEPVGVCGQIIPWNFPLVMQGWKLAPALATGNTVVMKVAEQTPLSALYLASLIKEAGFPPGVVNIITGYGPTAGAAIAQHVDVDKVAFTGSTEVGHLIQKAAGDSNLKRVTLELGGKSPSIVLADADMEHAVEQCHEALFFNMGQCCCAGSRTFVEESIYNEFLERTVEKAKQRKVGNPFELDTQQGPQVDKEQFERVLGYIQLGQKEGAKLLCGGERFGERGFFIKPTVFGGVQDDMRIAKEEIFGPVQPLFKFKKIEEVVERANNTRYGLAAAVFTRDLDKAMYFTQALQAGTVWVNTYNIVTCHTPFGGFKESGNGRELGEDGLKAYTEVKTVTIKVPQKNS
UniProt Q99470, sequence (Q99470 whole entry): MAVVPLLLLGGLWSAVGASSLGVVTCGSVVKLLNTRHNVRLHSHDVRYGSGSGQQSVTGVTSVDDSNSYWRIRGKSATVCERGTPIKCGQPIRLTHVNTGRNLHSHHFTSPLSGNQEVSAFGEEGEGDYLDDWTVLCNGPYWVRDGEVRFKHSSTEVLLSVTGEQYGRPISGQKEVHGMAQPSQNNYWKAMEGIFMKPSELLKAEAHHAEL
UniProt Q96L50, sequence (Q96L50 whole entry): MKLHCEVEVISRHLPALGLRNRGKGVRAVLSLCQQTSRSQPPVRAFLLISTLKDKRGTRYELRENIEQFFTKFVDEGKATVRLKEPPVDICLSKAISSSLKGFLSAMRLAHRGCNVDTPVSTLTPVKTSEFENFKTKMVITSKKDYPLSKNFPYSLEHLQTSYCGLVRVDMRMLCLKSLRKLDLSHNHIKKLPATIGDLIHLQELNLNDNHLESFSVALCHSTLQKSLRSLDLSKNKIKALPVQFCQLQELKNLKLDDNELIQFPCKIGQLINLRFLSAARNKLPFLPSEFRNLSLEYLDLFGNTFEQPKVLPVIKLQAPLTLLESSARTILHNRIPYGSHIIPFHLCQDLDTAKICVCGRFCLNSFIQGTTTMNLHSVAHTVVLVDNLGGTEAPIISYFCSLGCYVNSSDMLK

| Target | thermal stability z-score (lipoamide; [1]) | thermal stability z-score (lipoamide; arsenate co-treatment: none) | thermal stability z-score (potassium arsenate) |
| --- | --- | --- | --- |
| PODXL (UniProt O00592) | 0.0978 | 0.132 | 0.395 |
| ATP5L (UniProt O75964) | 0.758 | -1.18 | 0.595 |
| LRCH4 (UniProt O75427) | 0.0394 | -0.101 | -0.13 |
| DEPDC7 (UniProt Q96QD5) | -0.328 | -0.237 | -0.221 |
| BICD2 (UniProt Q8TD16) | 0.184 | 0.121 | 0.755 |
| STAT3 (UniProt P40763) | 0.0355 | -0.181 | 0.426 |
| GNAQ (UniProt P50148) | -0.312 | 0.15 | -1.39 |
| EED (UniProt O75530) | 0.547 | 0.145 | -0.276 |
| CKMT1A (UniProt P12532) | 0.957 | 0.965 | 0.795 |
| SYMPK (UniProt Q92797) | 0.324 | 0.338 | -0.75 |
| NDUFA11 (UniProt Q86Y39) | 0.521 | -0.0102 | 0.571 |
| ARPC2 (UniProt O15144) | -0.317 | -0.205 | -1.15 |
| ARSA (UniProt P15289) | 0.254 | 0.195 | -0.0376 |
| ALDH1B1 (UniProt P30837) | 1.12 | 0.881 | -1.44 |
| MAP2K4 (UniProt P45985) | -0.37 | 0.139 | -0.444 |
| FAM174A (UniProt Q8TBP5) | 0.351 | 0.647 | 1.14 |
| HEATR6 (UniProt Q6AI08) | 0.393 | 0.194 | 0.868 |
| HIST1H1E (UniProt P10412) | 0.132 | 0.627 | 0.618 |
| SF3B4 (UniProt Q15427) | 0.152 | -0.211 | -0.243 |
| THOC2 (UniProt Q8NI27) | -0.212 | -0.102 | 0.273 |
| KIF21A (UniProt Q7Z4S6) | -0.586 | -0.117 | 0.269 |
| ACAT2 (UniProt Q9BWD1) | -0.0152 | 6.3e-05 | -0.347 |
| CD320 (UniProt Q9NPF0) | 1.65 | 0.874 | 1.01 |
| STX7 (UniProt O15400) | -0.0553 | 0.417 | 0.507 |

| Target | thermal stability z-score (lipoamide; [1]) | thermal stability z-score (lipoamide; arsenate co-treatment: none) | thermal stability z-score (potassium arsenate) |
| --- | --- | --- | --- |
| REXO2 (UniProt Q9Y3B8) | 0.295 | 0.536 | 0.192 |
| ADCK3 (UniProt Q8NI60) | -0.0263 | 0.19 | 0.0575 |
| TRAPPC10 (UniProt P48553) | 0.191 | 0.411 | 0.381 |
| FAM96B (UniProt Q9Y3D0) | -0.113 | -0.0578 | -0.128 |
| TMEM237 (UniProt Q96Q45) | 0.0486 | 0.457 | -1.23 |
| BCL10 (UniProt O95999) | 0.00285 | 0.509 | 2.16 |
| MRE11A (UniProt P49959) | 0.729 | 0.164 | -0.619 |
| RPL27A (UniProt P46776) | 0.419 | 0.401 | -0.482 |
| ALG14 (UniProt Q96F25) | -0.0836 | -0.394 | -0.257 |
| GCAT (UniProt O75600) | -0.752 | -1.04 | 1.38 |
| NIF3L1 (UniProt Q9GZT8) | -0.14 | -0.407 | 0.115 |
| RCN2 (UniProt Q14257) | -3.71 | -2.81 | 0.788 |
| TM9SF3 (UniProt Q9HD45) | -0.451 | -0.0174 | 0.511 |
| METTL21A (UniProt Q8WXB1) | 0.425 | -0.307 | 0.26 |
| GMPPB (UniProt Q9Y5P6) | -0.503 | -0.625 | -0.104 |
| DCAF7 (UniProt P61962) | 0.278 | 0.939 | 1.2 |
| TP53RK (UniProt Q96S44) | 0.0309 | -0.743 | -0.367 |
| FBXL17 (UniProt Q9UF56) | 0.0273 | -0.0196 | -0.139 |
| SDF2 (UniProt Q99470) | -3.1 | -2.94 | 0.21 |
| BIRC5 (UniProt O15392) | 0.166 | 0.186 | 0.136 |
| CBR4 (UniProt Q8N4T8) | -0.276 | 0.0911 | 0.168 |
| FKBP15 (UniProt Q5T1M5) | -0.422 | -0.17 | 0.523 |
| ALDH1L2 (UniProt Q3SY69) | -0.223 | 0.327 | 0.559 |
| ELOVL1 (UniProt Q9BW60) | -0.883 | -0.778 | 0.652 |

| Target | thermal stability z-score (lipoamide; [1]) | thermal stability z-score (lipoamide; arsenate co-treatment: none) | thermal stability z-score (potassium arsenate) |
| --- | --- | --- | --- |
| PHKA1 (UniProt P46020) | -0.125 | -0.051 | 0.0887 |
| EIF1AD (UniProt Q8N9N8) | 0.433 | 0.98 | 1.09 |
| RAD50 (UniProt Q92878) | 0.0652 | -0.163 | -0.768 |
| SMS (UniProt P52788) | 0.652 | 0.823 | 4.34 |
| SPTBN1 (UniProt Q01082) | 0.502 | 0.309 | -1.61 |
| PRPSAP1 (UniProt Q14558) | 0.0495 | -0.517 | -0.858 |
| ADAR (UniProt P55265) | 0.419 | 0.448 | -1.48 |
| BEGAIN (UniProt Q9BUH8) | -0.0429 | -0.117 | 0.144 |
| SHTN1 (UniProt A0MZ66) | 1.1 | 0.75 | 1.25 |
| CHCHD6 (UniProt Q9BRQ6) | 0.209 | 0.536 | -0.66 |
| UQCRQ (UniProt O14949) | 0.971 | 0.797 | 1.28 |
| CYB5R4 (UniProt Q7L1T6) | 0.477 | 0.1 | -0.243 |
| ABLIM1 (UniProt O14639) | 0.77 | 1.47 | -1.82 |
| ACTR1B (UniProt P42025) | 1.04 | 0.945 | 0.0363 |
| ZMYM2 (UniProt Q9UBW7) | -0.105 | -0.0436 | -0.802 |
| SETX (UniProt Q7Z333) | -0.122 | -0.0676 | -0.00223 |
| PHPT1 (UniProt Q9NRX4) | 0.922 | 0.553 | -1.95 |
| PTGES3 (UniProt Q15185) | 0.0467 | 0.127 | -0.454 |
| LRR1 (UniProt Q96L50) | 0.148 | 0.192 | -0.256 |
| TGS1 (UniProt Q96RS0) | -0.109 | -0.175 | 1.17 |
| FANCI (UniProt Q9NVI1) | -0.722 | -0.439 | -1.2 |
| MARC1 (UniProt Q5VT66) | 0.204 | 0.806 | 1.12 |
| GOPC (UniProt Q9HD26) | -0.587 | 0.0054 | 0.591 |
